From publication PMC10322718, “Expanding the substrate scope of pyrrolysyl-transfer RNA synthetase enzymes to include non-α-amino acids in vitro and in vivo” (Nature Chemistry, 2023)

Assays:
MaPylRS = molecular target: T1, MaPylRS (Methanomethylophilus alvi, UniProt M9SC49, N166A/V168A); assay: X-ray crystal structure, […] Å; assay type: binding; conditions: ternary complex with AMP-PNP; active site, two orientations (chains A and B)
T1 construct: gene MMALV_11280; pET32a, E. coli BL21-Gold(DE3)pLysS, Ni-NTA; for crystals 6xHis-thrombin site N-terminal, tag cut; dimer in crystal

[1] = molecular target: the molecule itself; assay: crystal structure; MaFRSA with 100 mM m-CF3-2-BMA and 10 mM AMP-PNP, hanging-drop vapour diffusion at 18 °C, 10 mM Tris-HCl pH 7.4, 26% PEG 3,350; space group I4, two copies in the asymmetric unit, 1.8 Å

## O=C(O)C(Cc1cccc(C(F)(F)F)c1)C(=O)O [compound 18, m-CF3-2-BMA]
MaPylRS
  X-ray crystal structure, 1.8 Å: we solved the crystal structure of MaFRSA bound to both m-CF3-2-BMA and the non-hydrolysable ATP analogue

B1: MaFRSA (Methanomethylophilus alvus pyrrolysyl-tRNA synthetase, MaPylRS, N166A V168A) (enzyme)
chain: MTVKYTDAQIQRLREYGNGTYEQKVFEDLASRDAAFSKEMSVASTDNEKKIKGMIANPSRHGLTQLMNDIADALVAEGFIEVRTPIFISKDALARMTITEDKPLFKQVFWIDEKRALRPMLAPNLYSVMRDLRDHTDGPVKIFEMGSCFRKESHSGMHLEEFTMLALADMGPRGDATEVLKNYISVVMKAAGLPDYDLVQEESDVYKETIDVEINGQEVCSAAVGPHYLDAAHDVHEPWSGAGFGLERLLTIREKYSTVKKGGASISYLNGAKIN
notes: Pyrrolysyl-tRNA synthetase (PylRS) of Methanomethylophilus alvus with N166A and V168A; construct GSS linker-6xHis-SSG linker-thrombin site-MaFRSA from pET32a-6xHis-thrombin-MaFRSA, tag removed with thrombin; Crystallised with m-CF3-2-benzylmalonate and AMP-PNP; source: E. coli BL21-Gold (DE3)pLysS, purified (TALON, thrombin cleavage, Superdex 200); not shown: 6xHis, N-terminal, cleaved
[1]
  binding result: binds
